Reference: US6800247B1, “Deactivants for dust mite allergens” (priority 1997, dated 2004)
Structures can show the parent of a compound that is named as a salt. Where two headings read alike, the source gives them in different places.

Legend:
Type in all cases: biochemical
Der-f allergens [1] = target: T1, Der-f allergens (Dermatophagoides farinae, UniProt P16311); details: for Ratio of actives remaining after deactivant treatment over those remaining after tannic acid treatment: Examples 48-55, tested as above and compared with tannic acid
T1 construct: Dust is collected from Hoover™ vacuum cleaner bags and passed through a series of sieves down to 63 microns; from tissue; host or cells: house dust from vacuum cleaner bags, sieved to 63 microns
T1 sequence (P16311 99-321): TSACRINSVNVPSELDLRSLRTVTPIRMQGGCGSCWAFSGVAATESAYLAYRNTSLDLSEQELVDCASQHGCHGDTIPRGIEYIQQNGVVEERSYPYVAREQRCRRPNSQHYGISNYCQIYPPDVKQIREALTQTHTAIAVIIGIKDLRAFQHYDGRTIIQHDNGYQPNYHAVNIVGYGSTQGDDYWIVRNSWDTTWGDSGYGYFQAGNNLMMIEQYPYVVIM
Method: (§1) The ELISA protocol for Der-f and Der-p has been developed as follows as a measure of denaturing property for denaturants.
(§2) 1. Dust is collected from Hoover™ vacuum cleaner bags and passed through a series of sieves down to 63 microns.
(§3) 2. Clean petri dishes are labelled with the chemical to be tested (on the base). Three replicates are used for each treatment.
(§4) 3. Filter paper is used to line each dish and 0.2 g of dust is added to each dish onto the filter paper. The lid (or base, as dishes are inverted) is replaced and the dish is shaken to disperse the dust evenly over the filter paper.
(§5) 4. 2% aqueous solutions of deactivant were used except for the silver chloride composite where 0.05% was used instead. Immobilised tannic acid was used as a 1% dispersion. The hydrogenerated hop end was used at the 2% level (in the form of a 10% solution). Water-insoluble deactivants were emulsified with a sorbitone oleate surfactant (i.e. Tween). Hinokitol was used at 0.5% not 2%.
(§6) 5. The dust is sprayed with the corresponding treatment, 2 sprays are required for sufficient coverage (1 spray=1.5 ml).
(§7) 6. Leave uncovered at room temperature, in well aerated room, until filter paper is dry. This can take up to 4 hours.
(§8) 7. Empty dust in epindorfs labelled according to treatment.
(§9) 8. Add 1 ml of 5% Bovine Serum Albumen Phosphate Butter Saline—Tween BSA-PBS-T to each epindorf (5 times the weight of dust) (20 ml of BSA-PBS-T=1 g of BSA in 20 ml of PBS-T).
(§10) 9. Leave overnight in a refrigerator.
(§11) 10. Centrifuge for 5 minutes at 13,000 rpm.
(§12) 11. Decant the supernatant into a new epindorf labelled according to treatment.
(§13) 12. Centrifuge again for 5 minutes at 13,000 rpm.
(§14) 13. Make up dilutions of 1:10 and 1:100 by adding 100 μl of neat solution to 900 μl of 1% BSA-PBS-T (1:10). This is repeated using 100 μl of 1:10 dilution and add to 900 μl of 1% BSA-PBS-T for 1:100 dilution.
(§15) ELISA Protocol 2 for Der-f and Der-p: Indoor Biotechnologies
(§16) 1. Prepare samples and dilutions as in protocol
(§17) 2. Prepare 500 ml of 50 mM carbonate/bicarbonate buffer by dissolving 0.795 g Na2CO3 and 1.465 g NaHCO3 in 500 ml of distilled water. Check the pH is at 9.6. (This solution is kept in the refrigerator in a conical flask).
(§18) 11 ml of carbonate/bicarbonate buffer is added to the dispensing tray.
(§19) 11 μl of Der-f1 or Der-p1 monoclonal antibody
(§20) (Stored in freezer, epindorf in use is in the refrigerator) is added to the buffer. To ensure that all the antibody is removed from the tip, wash out the pipette tip by sucking up and down I the buffer solution, gently stirring to mix thoroughly.
(§21) 4. Pipette 100 μl of the antibody solution into each well of the microtiter plate, cover with a plate sealer and leave overnight at 4° C.
(§22) 5. Empty the plate by quickly inverting it over the sink, then dry by banging on a stack of paper towels.
(§23) 6. Add 200 μl of wash buffer to each well: PBS/0/05% tween (PBS-T)
(§24) 7. Repeat stages 5 and 6 once more (making a total of 2 washes).
(§25) 8. Make sure all the wells are dry, then add 100 μl of 1% BSA-PBS-T. Replace the plate sealer and incubate for 1 hour at room temperature*.
(§26) 9. Repeat steps 5 to 7 (2 washes).
(§27) This is mixed thoroughly.
(§28) 11. Add 100 μl aliquots of the allergen sample to the plate along with the standard allergen samples for the reference curve in duplicate. The standards usually go in the first two columns on the left hand side, with the least concentrated on top. Incubate for 1 hour.
(§29) 12. Follow stages 5 to 6, completing a total of 5 washes.
(§30) 13. Pour 11 ml of 1% BSA-PBS-T(0.11 g of BSA to 11 ml of PBS-T) to the dispensing tray. Add 11 μl of the biotinylated monoclonal antibody (refrigerator) and mix thoroughly.
(§31) 14. Pipette 100 μl into each well and incubate for 1 hour at room temperature.
(§32) 15. Empty plate and wash as described in stage 12. (5 washes).
(§33) 16. Add 11 μl of Streptavidin (freezer) to 11 ml of 1%BSA-PBS-T. Pipette 100 μl into each well and incubate for 30 minutes. Reserve any remaining solution in a vial.
(§34) 17. Empty plate and wash as described in stage 12 (5 washes).

Der-f allergens [2] = target: T1, Der-f allergens; parameters: Amount of Allergen remaining active after deactivant treatment: unit not given here
Method: as §1, §2, §3, §4, §5, §6, §7, §8, §9, §10, §11, §12, §13, §14, §15, §16, §17, §18, §19, §20, §21, §22, §23, §24, §25, §26, §27, §28, §29, §30, §31, §32, §33, §34

Der-p allergens = target: T2, Der-p allergens (Dermatophagoides pteronyssinus, UniProt P08176); experiment: Deactivation of Der-p allergens (ELISA protocol), summary statement
T2 construct: Dust is collected from Hoover™ vacuum cleaner bags and passed through a series of sieves down to 63 microns; from tissue; host or cells: house dust from vacuum cleaner bags, sieved to 63 microns
T2 sequence (P08176 99-320): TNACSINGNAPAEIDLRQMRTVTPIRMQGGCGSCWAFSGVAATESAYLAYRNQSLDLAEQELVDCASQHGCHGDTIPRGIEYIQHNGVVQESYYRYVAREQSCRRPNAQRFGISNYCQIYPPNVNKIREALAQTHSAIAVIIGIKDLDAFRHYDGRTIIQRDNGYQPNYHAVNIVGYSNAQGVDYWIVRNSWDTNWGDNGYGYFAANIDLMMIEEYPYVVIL
Method: The test procedure in Examples 1 to 55 is as follows and is known as the ELISA protocol.
as §1, §15, §19

[3] = Der-f, compared with vacuuming only, no deactivant, 2% deactivant (AgCl composite 0.05%, immobilised tannic acid 1%, hinokitol 0.5%)
[4] = Der-f, 0.2 g sieved house dust sprayed with 2% aqueous deactivant (AgCl composite 0.05%, immobilised tannic acid 1%, hinokitol 0.5%)

Compound	Amount of active Allergen remaining after deactivant treatment (Der-f allergens [1]; [3])	Ratio of remaining active allergen after Deactivant/Tannic Acid Treatment (Der-f allergens [2])	Amount of Allergen remaining active after deactivant treatment (Der-f allergens [2]; [4])	Amount of active Allergen remaining after deactivant treatment (Der-f allergens [1])	Amount of Allergen remaining active after deactivant treatment (Der-f allergens [2])	Ratio of actives remaining after deactivant treatment over those remaining after tannic acid treatment (Der-f allergens [1])	Effectiveness against Der-p allergens (Der-p allergens)	Ratio of remaining active allergen after Deactivant/Tannic Acid Treatment (Der-f allergens [2]; Der-f, ratio below 1 = better than tannic acid)
CCCOCC(C)O (centres unmarked) [1-propoxy-propanol-2]	1233	2.194	3950	–	–	–	–	–
CCCCC(CC)COC(=O)CC(C(=O)OCC(CC)CCCC)S(=O)(=O)[O-].[Na+] (centres unmarked) [Aerosol OT]	4494	1.298	1525	–	–	–	–	–
N.N.O=S(=O)(O)O [Ammonium sulphate, ammonium sulphate]	–	1.618	–	2325	2750	–	–	–
O=C1c2ccccc2C(=O)c2ccccc21 [Anthraquinone sodium salt, the sodium salt of anthraquinone]	–	0.765	1530	–	–	–	–	–
N=C(NCCCCCCNC(=N)NC(=N)Nc1ccc(Cl)cc1)NC(=N)Nc1ccc(Cl)cc1 [Chlorohexidine, 1,1′-hexamethylenebis [5-(4-chlorophenyl)]-biguanide]	2281	0.991	1412.5	–	–	3.0	–	–
O=C(NCO)N(CO)C1(CO)C(=O)NC(=O)N1CO (centres unmarked) [Germall II, diazolidinylurea]	–	0.685	950	–	–	1.5	–	–
O=CCCCC=O [Glutaraldehyde, qlutaraldehyde]	816	–	–	–	–	1.5	effective against Der-p allergens only	–
CC(C)c1cccc(=O)c(O)c1 [Hinokitol, β-thujaplicin]	2058	1.533	3065	–	–	–	–	–
O=C1O[C@H]([C@@H](O)CO)C(O)=C1O [L-Ascorbic Acid, L-ascorbic acid]	1438	1.333	2000	–	–	–	–	–
O=C1C=CC(=O)O1 [Maleic anhydride, maleic anhydride]	783	0.875	1312.5	–	–	1.0	–	–
CN1CCCC1=O [N-methyl pyrrolidone, N-methylpyrrolidone]	–	1.362	1600	–	–	4.0	–	–
C=CCc1cc(OC)c2c(c1OC)OCO2 [Parsley Camphor]	2581	–	1225	–	–	–	–	0.883
O=C([O-])CS.[K+] [Potassium thioglycolate, potassium thioglycolate]	3092	–	–	–	–	–	effective against Der-p allergens only	–
Cc1ccc(C(C)C)c(O)c1 [Thymol, 6-isopropyl-m-cresol]	1500	0.523	725	–	–	4.0	–	–
NC(N)=O [Urea, urea]	–	2.500	3750	–	–	–	–	–
CCCCCCCCCCCCCCCC[N+](C)(C)C.[Cl-] [hexadecyltrimethylammonium chloride]	2863	2.264	4075	–	–	–	–	–
aluminium chlorohydrate	978	2.233	1675	–	–	–	–	–
cyclodextrin	–	2.265	3850	–	–	–	–	–
